Laboratory results taken from US7049311B1, “Pyrrolbenzodiazepines” (Spirogen Limited, priority 1998, dated 2006).

Assays:
[1] = system: human tumour cells cultivated in hollow fibres implanted in mice; assay: NCI Hollow Fibre Assay; assay type: in vivo
From the text: The Biological testing Branch of the Developmental Therapeutics Program of the NCI has adopted a preliminary in vivo screening tool for assessing the potential anticancer activity of compounds identified by the large scale in vitro cell screen. For these assays, human tumour cells are cultivated in polyvinylidene (PVDF) hollow fibres, and a sample of each cell line is implanted into each of two physiologic compartments (intraperitoneal and subcutaneaous) in mice. Each test mouse received a total of 6 fibres (3 intraperitoneally and 3 subcutaneously) representing 3 distinct cancer cell lines. These mice are treated with potential antitumour compounds at each of 2 test doses by the intraperitoneal route using a QD×4 treatment schedule. Vehicle controls consist of 6 mice receiving the compound diluent only. The fibre cultures are collected on the day following the last day of treatment. To assess anticancer effects, the viable cell mass is determined for each of the cell lines using a formazyn dye (MTT) conversion assay. From this, the % T/C can be calculated using the average optical density of compound treated samples divided by the average optical; density of the vehicle controls. In addition, the net increase in cell mass can be determined for each sample, as a sample of fibre cultures are assessed for viable cell mass on the day of implantation into mice. Thus, the cytostatic and cytocidal capacities of the test compound can be assessed.
Generally, each compound is tested against a minimum of 12 human cancer cell lines. This represents a total of 4 experiments since each experiment contains 3 cell lines. The data are reported as % T/C for each of the 2 compound doses against each of the cell lines with separate values calculated for the intraperitoneal and subcutaneous samples.
Compounds are selected for further in vivo testing in standard subcutaneous xenograft models on the basis of several hollow fibre assay criteria. These include: (1) a % T/C of 50 or less in 10 of the 48 possible test combinations (12 cell lines×2 sites×2 Compound doses); (2) activity at a distance (intraperitoneal drug/subcutaneous culture) in a minimum of 4 of the 24 possible combinations; and/or (3) a net cell kill of 1 or more of the cell lines in either implant site. To simplify evaluation, a points system has been adopted which allows rapid evaluation of the activity of a given compound. For this, a value of 2 is assigned for each compound dose which results in a 50% or greater reduction in viable cell mass. The intraperitoneal and subcutaneous samples are scored separately so that criteria (1) and (2) can be evaluated. Compounds with a combined IP+SC score of 20, a SC score of 8 or a net cell kill of one or more cell lines are referred for xenograft testing. […] In addition to these criteria, other factors (e.g. unique structure, mechanism of action) may result in referral of a compound for xenograft testing without the compound meeting these criteria.

calf thymus DNA = assay: DNA helix melting temperature assay; assay type: binding
Protocol: The first assay, which is described in G. B. Jones, et al., Anti-Cancer Drug Des., 1990, 5, 249, which is incorporated herein by reference, determines the effect of the test compound on the helix melting temperature of DNA. This assay is designed to give an indication of the strength and extent of cross-linking of the DNA strands by the test compound (i.e. a measure of the stabilisation of the DNA upon ligand binding).
The melting temperature was determined for a 1:5 molar ratio of [ligand] [DNA], where the calf thymus DNA concentration is […] in aqueous sodium phosphate buffer (10 mM sodium phosphate+1 mM EDTA, pH 7.00±0.01). For calf thymus DNA at pH 7.00±0.01, the melting temperature is 67.83±0.06° C. (mean value from 30 separate determinations).

A2780cisR [2] = assay: Ovarian carcinoma cytotoxicity assay; assay type: cell-based, human; conditions: Homo sapiens, A2780cisR, 96 h, read-out: IC50 A2780cisR
Method in brief: (§1)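 Cells attached overnight, then read 96 hours later by sulphorhodamine B staining of TCA-fixed cells, with absorbance at 540 nm. IC50 taken from concentration versus % absorbance relative to untreated wells; cisR lines are cisplatin-resistant.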

A2780 = assay: Ovarian carcinoma cytotoxicity assay; assay type: cell-based, human; conditions: Homo sapiens, A2780, 96 h, read-out: IC50 A2780
Method in brief: as §1

A2780cisR [3] = assay: Cytotoxicity in cisplatin-resistant A2780cisR (Example 9); assay type: cell-based, human; conditions: for IC50: Homo sapiens, A2780cisR, 96 h
Protocol: Relative to the parental line, the A2780cisR subline is known to have elevated GSH levels, an increased level of repair of DNA-cisplatin adducts, and a decreased ability to uptake cisplatin (M. Smellie, et al., Br. J. Cancer, 1994, 70, 48).
The results, which were obtained by incubating the cells with the compounds for 96 hours at 37° C., and assessing the cell number using Sulforhodamine B, are presented in the table below: […]

SKOV-3 = assay: Ovarian carcinoma cytotoxicity assay; assay type: cell-based; conditions: Homo sapiens, SK-OV-3, 96 h, read-out: IC50 Skov3
Method in brief: as §1

CH1cisR = assay: Ovarian carcinoma cytotoxicity assay; assay type: cell-based; conditions: Homo sapiens, CH1cisR, 96 h, read-out: IC50 CH1cisR
Method in brief: as §1

CH1 = assay: Ovarian carcinoma cytotoxicity assay; assay type: cell-based; conditions: Homo sapiens, CH1, 96 h, read-out: IC50 CH1
Method in brief: as §1

## C=C1C[C@H]2C=Nc3cc(OCCCOc4cc5c(cc4OC)C(=O)N4CC(=C)C[C@H]4C=N5)c(OC)cc3C(=O)N2C1 [UP2001 (80)]
[1]; combined IP+SC score
  Total score: 54
[1]; intraperitoneal fibres, 2 points per dose giving 50% or greater reduction in viable cell mass
  IP score: 40
[1]; subcutaneous fibres, 2 points per dose giving 50% or greater reduction in viable cell mass
  SC score: 14
Calf thymus DNA; [PBD]:[DNA] ratio of 1:5, calf thymus DNA, pH 7.00, 0 h
  Induced ΔTa after incubation at 37° C. for 0 h: 25.7 °C
Calf thymus DNA; [PBD]:[DNA] ratio of 1:5, calf thymus DNA, pH 7.00, 4 h
  Induced ΔTa after incubation at 37° C. for 4 h: 31.9 °C
Calf thymus DNA; [PBD]:[DNA] ratio of 1:5, calf thymus DNA, pH 7.00, 18 h
  Induced ΔTa after incubation at 37° C. for 18 h: 33.6 °C
Calf thymus DNA; calf thymus DNA melting
  share of stabilising effect provided without prior incubation: 60-80%
Calf thymus DNA; on a concentration basis
  fold more effective than DSB-120 (comparative ΔTm curves): ≥ 10 fold
A2780cisR [2]
  IC50: 0.024 nM
A2780
  IC50: 0.023 nM
A2780cisR [3]; A2780cisR cell line
  fold more potent than DSB-120: ~9,000 fold
A2780cisR [3]; read-out: IC50 A2780cisR
  IC50: 0.024 nM
A2780cisR [3]; read-out: IC50 A2780cis^a
  IC50: 0.024 nM
SKOV-3
  IC50: 9.1 nM
CH1cisR
  IC50: 0.6 nM
CH1
  IC50: 0.12 nM
